Literature values in patent US20070092572A1, “Bone cement compositions and the like comprising an RNAIII-inhibiting peptide” (priority 2005, published 2007).
Read-outs that look alike come from different tables or passages of the source. Where no end group is shown, it is not given here.

How the values were obtained:
S. aureus = details: non-amidated versus amide form
S. aureus MS = details: Osteomyelitis, rabbit, strain MS, +RIP
S. aureus LS-1 [1] = details: Sepsis, mouse, strain LS-1, +RIP
S. aureus LS-1 [2] = details: Arthritis, mouse, strain LS-1, +RIP
S. aureus 8325-4 = details: Keratitis, rabbit, strain 8325-4, +RIP
S. aureus Newbould/AE-1 = details: Mastitis, cow, strain Newbould/AE-1, +RIP
S. aureus Smith diffuse = details: Cellulitis/sepsis, mouse, strain Smith diffuse, +RIP
[3] = test system: MRSA, MRSE, VISA, VISE, GISA, GISE, MSSA, MSSE; details: Graft injection, rat, +RIP

Substance	activity of the peptide form (S. aureus)	% animals disease free (S. aureus MS) [%]	% animals disease free (S. aureus LS-1 [1]) [%]	% animals disease free (S. aureus LS-1 [2]) [%]	% animals disease free (S. aureus 8325-4) [%]	% animals disease free (S. aureus Newbould/AE-1)	% animals disease free (S. aureus Smith diffuse)	% animals disease free [3]
non-amidated form of synthetic RIP: non-amidated form of the synthetic RIP analogue YSPWTNF (YSPWTNF-OH)	inactive	–	–	–	–	–	–	–
YSPWTNF(-NH2) (YSPWTNF-NH2) [RIP, amide form of a synthetic RIP analogue]	–	58	44	60	40	70-100%	Up to 100%	Up to 100%
